The term IC50 denotes the concentration needed to halve the response being measured.

Structures can show the parent of a compound that is named as a salt.

T1 sequence (P46095 whole entry): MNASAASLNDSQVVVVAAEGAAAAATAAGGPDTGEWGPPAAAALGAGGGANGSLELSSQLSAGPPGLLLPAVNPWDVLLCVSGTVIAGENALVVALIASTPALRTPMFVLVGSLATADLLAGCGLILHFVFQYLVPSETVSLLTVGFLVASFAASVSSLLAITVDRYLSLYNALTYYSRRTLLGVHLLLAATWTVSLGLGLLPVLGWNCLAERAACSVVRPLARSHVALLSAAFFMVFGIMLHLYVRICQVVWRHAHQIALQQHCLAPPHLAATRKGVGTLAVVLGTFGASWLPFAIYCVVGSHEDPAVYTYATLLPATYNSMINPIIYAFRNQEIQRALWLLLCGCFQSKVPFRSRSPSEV

The test addresses T1, GPR6 receptor (Homo sapiens, UniProt P46095).
T1 construct: expressed in transfected cells
As to the kind of experiment: Inhibition of cAMP Activity of GPR6 In Vitro Assay (CHO-K1 cells, HTRF cAMP). The format is cell-based. The note with it: compounds of Compound Table 1; inhibition of constitutive cAMP activity of GPR6 expressed in CHO-K1 cells; approximate IC50; read-out: IC50. How it is done:
Inhibition of cAMP Activity of GPR6 In Vitro Assay
This cell based assay measures the ability of compounds to inhibit the constitutive cAMP activity of GPR6 receptor expressed in CHO-K1 cells. CHO cells were stably expressed with GPR6 receptor, whose expression is controlled by a tetracycline inducable element. The cells were cultured in medium containing F12K, 10% FBS, 1% Penn/Strep, 200 ug/mL Hygromycin. GPR6 receptor expression was induced for 20 hrs with 1 μg/ml doxycycline (sigma D9891) in growth media. After addition of doxycycline cells were plated at a density of 250-500 cells per well in half-volume black clear bottom plates (Costar) and place in an incubator (37°, 5% C(O)2) for 20 hours prior to cAMP assays.
Culture media was removed from cells and they were washed with 50 μL of Ringer's Buffer (MgCl2 0.047 mg/mL, NaH2PO4 0.18 mg/mL, Na2HPO4 0.1 mg/mL, KCl 0.34 mg/mL, NaHC(O)3 1.26 mg/mL, D-glucose 1.8 mg/mL, NaCl 7 mg/mL; pH=7.4). Compounds suspended in DMSO were diluted in Ringer's Buffer containing 0.5% fatty acid free BSA and incubated on cells for 45 min at […] and 5% C(O)2. After incubation cells were incubated for 10 min at room temp with Eu-cAMP tracer solution from a Perkin Elmer Lance HTRF UltracAMP assay kit (TRF0264). Then ULight™-anti-cAMP solution from the Lance HTRF kit was added and incubated on a shaker at room temp for 1 hour prior to HTRF detection in a BMG PolarStar Omega.
IC50 curves were generated with a four-parameter logistic equation using GraphPad Prism 5.03.
Background: In TR-FRET formats the signal depends on donor and acceptor labels being close together.
As for “2-(4-(4-chloro-2-fluorophenoxy)piperidin-1-yl)-3-(isopropylamino)quinoxaline-6-carbonitrile, hydrogen chloride salt [Cpd 626]”, the IC50 was found to be 90 nM.

Consider “2-(cyclopropylamino)-3-(4-((2,5-dimethoxyphenyl)sulfonyl)piperazin-1-yl)quinoxaline-6-carbonitrile, 2,2,2-trifluoroacetic acid salt [Cpd 329]”, for which the IC50 worked out at 1300 nM. For “2-(cyclopropylamino)-3-(4-((4-(trifluoromethoxy)phenyl)sulfonyl)piperazin-1-yl)quinoxaline-6-carbonitrile, 2,2,2-trifluoroacetic acid salt [Cpd 283]”, the IC50 came out at 420 nM. For “3-(4-((3-chloro-5-fluoro-2-methylphenyl)sulfonyl)piperazin-1-yl)-2-(cyclopropylamino)quinoxaline-6-carbonitrile, 2,2,2-trifluoroacetic acid salt [Cpd 282]”, the IC50 is 4290 nM. With `Clc1ccc(Cl)c(CN2CCN(c3nc4ccc(Br)cc4nc3NC3CC3)CC2)c1` [Cpd 45, 7-bromo-N-cyclopropyl-3-(4-(2,5-dichlorobenzyl)piperazin-1-yl)quinoxalin-2-amine, 2,2,2-trifluoroacetic acid salt] the figure was 2340 nM. On to “3-(4-(2,5-difluorobenzyl)piperazin-1-yl)-2-((6-methoxypyridin-3-yl)amino)quinoxaline-6-carbonitrile, 2,2,2-trifluoroacetic acid salt [Cpd 333]”, for which the IC50 worked out at 97 nM. The result for “N-cyclopropyl-3-(4-(3-isopropylbenzyl)piperazin-1-yl)quinoxalin-2-amine, 2,2,2-trifluoroacetic acid salt [Cpd 211]” reads 9440 nM; that for “3-(4-(2-fluoro-4-methoxyphenoxy)piperidin-1-yl)-2-(isopropylamino)pyrido[3,4-b]pyrazine-7-carbonitrile, 2,2,2-trifluoroacetic acid salt [Cpd 628]”, 276 nM; that for “N-cyclohexyl-3-(4-(2,5-dichlorobenzyl)piperazin-1-yl)quinoxalin-2-amine, 2,2,2-trifluoroacetic acid salt [Cpd 170]”, 4070 nM. The result for `Cc1cccc(CN2CCN(c3nc4ccccc4nc3NC3CC3)CC2)c1` [Cpd 1, N-cyclopropyl-3-(4-(3-methylbenzyl)piperazin-1-yl)quinoxalin-2-amine, 2,2,2-trifluoroacetic acid salt] reads 17700 nM; that for “(1-(2-(cyclopropylamino)pyrido[3,4-b]pyrazin-3-yl)piperidin-4-yl)(3-fluorophenyl)methanone, 2,2,2-trifluoroacetic acid salt [Cpd 568]”, 2180 nM; that for “3-(4-((4-chloro-2,5-dimethylphenyl)sulfonyl)piperazin-1-yl)-2-(cyclopropylamino)quinoxaline-6-carbonitrile, 2,2,2-trifluoroacetic acid salt [Cpd 281]”, 960 nM. Consider “3-(cyclopropylamino)-2-(4-((2,5-difluorophenyl)fluoromethyl)piperidin-1-yl)quinoxaline-6-carbonitrile, 2,2,2-trifluoroacetic acid salt [Cpd 484]”, for which the IC50 was 29 nM. With “N-cyclopropyl-3-(4-(2,4-difluorobenzyl)piperidin-1-yl)pyrido[3,4-b]pyrazin-2-amine, 2,2,2-trifluoroacetic acid salt [Cpd 414]” the figure was 390 nM; with “(4-chloro-2-fluorophenyl)(1-(2-(cyclopropylamino)pyrido[3,4-b]pyrazin-3-yl)piperidin-4-yl)methanone, 2,2,2-trifluoroacetic acid salt [Cpd 447]”, 35 nM. On to “(1-(2-(cyclopropylamino)pyrido[3,4-b]pyrazin-3-yl)piperidin-4-yl)(2-(methylthio)phenyl)methanone, 2,2,2-trifluoroacetic acid salt [Cpd 581]”, for which the IC50 was found to be 6 nM. With “(4-chloro-2-(trifluoromethyl)phenyl)(4-(2-(cyclopropylamino)pyrido[3,4-b]pyrazin-3-yl)piperazin-1-yl)methanone, 2,2,2-trifluoroacetic acid salt [Cpd 392]” the figure was 260 nM; with “3-(4-(3-bromo-4-fluorobenzoyl)piperazin-1-yl)-2-(cyclopropylamino)quinoxaline-6-carbonitrile, 2,2,2-trifluoroacetic acid salt [Cpd 256]”, 380 nM.

As for `c1ccc2nc(N3CCN(Cc4coc5ccccc45)CC3)c(NC3CC3)nc2c1` [Cpd 100, 3-(4-(benzofuran-3-ylmethyl)piperazin-1-yl)-N-cyclopropylquinoxalin-2-amine], the IC50 was 3960 nM. With `O=S(=O)(c1ccccc1)N1CCN(c2nc3ccccc3nc2NC2CC2)CC1` [Cpd 105, N-cyclopropyl-3-(4-(phenylsulfonyl)piperazin-1-yl)quinoxalin-2-amine] the figure was 5660 nM. Consider “3-(4-(2,5-dichlorobenzyl)piperazin-1-yl)-2-(isoxazol-3-ylamino)quinoxaline-6-carbonitrile, 2,2,2-trifluoroacetic acid salt [Cpd 340]”, for which the IC50 is 15400 nM. Turning to `Clc1cc(CN2CCN(c3nc4ccccc4nc3NC3CC3)CC2)c(Cl)s1` [Cpd 99, N-cyclopropyl-3-(4-((2,5-dichlorothiophen-3-yl)methyl)piperazin-1-yl)quinoxalin-2-amine, 2,2,2-trifluoroacetic acid salt], the half-maximal inhibitory concentration (IC50) was 6030 nM. Regarding “(R)—N-cyclopropyl-3-(4-((2,4-difluorophenyl)fluoromethyl)piperidin-1-yl)pyrazino[2,3-d]pyridazin-2-amine, 2,2,2-trifluoroacetic acid salt [Cpd 599]”, the half-maximal inhibitory concentration (IC50) amounted to 5 nM. With `O=C(c1cc2nc(NC3CC3)c(N3CCC([C@H](F)c4ccc(F)cc4F)CC3)nc2cn1)N1CCC1` [Cpd 591, (S)-azetidin-1-yl(2-(cyclopropylamino)-3-(4-((2,4-difluorophenyl)fluoromethyl)piperidin-1-yl)pyrido[3,4-b]pyrazin-7-yl)methanone] the figure was 22 nM; with “mixture of N-cyclopropyl-3-(4-(2,5-dichlorobenzyl)piperazin-1-yl)-7-methoxyquinoxalin-2-amine, 2,2,2-trifluoroacetic acid salt and N-cyclopropyl-3-(4-(2,5-dichlorobenzyl)piperazin-1-yl)-7-methoxyquinoxalin-2-amine, 2,2,2-trifluoroacetic acid salt [Cpd 47]”, 3360 nM. With “7-chloro-N-cyclopropyl-3-(4-(2,4-difluorobenzyl)piperidin-1-yl)pyrido[3,4-b]pyrazin-2-amine [Cpd 592]” the figure was 26 nM; with “(1-(2-(cyclopropylamino)pyrido[3,4-b]pyrazin-3-yl)piperidin-4-yl)(3-methoxyphenyl)methanone [Cpd 564]”, 11000 nM; with “(2-chlorophenyl)(1-(2-(cyclopropylamino)pyrido[3,4-b]pyrazin-3-yl)piperidin-4-yl)methanone, 2,2,2-trifluoroacetic acid salt [Cpd 557]”, 1920 nM. Turning to `c1ccc(CN2CCN(c3nc4ccccc4nc3NC3CC3)CC2)nc1` [Cpd 20, N-cyclopropyl-3-(4-(pyridin-2-ylmethyl)piperazin-1-yl)quinoxalin-2-amine, 22,2,2-trifluoroacetic acid salt], the IC50 was determined as 69200 nM. With “3-(4-(2-fluoro-4-methoxybenzyl)piperidin-1-yl)-2-(isopropylamino)pyrido[3,4-b]pyrazine-7-carbonitrile, 2,2,2-trifluoroacetic acid salt [Cpd 636]” the figure was 16 nM. On to “N-cyclopropyl-3-(4-(2,4-difluorophenoxy)piperidin-1-yl)-5-methylpyrido[3,4-b]pyrazin-2-amine, 2,2,2-trifluoroacetic acid salt [Cpd 494]”, for which the concentration for half-maximal inhibition (IC50) stood at 2 nM. With “N-cyclobutyl-2-(4-(2,4-difluorophenoxy)piperidin-1-yl)pyrido[3,4-b]pyrazin-3-amine [Cpd 657]” the figure was 8 nM. With “6-bromo-N-cyclopropyl-3-(4-(2,4-difluorobenzyl)piperidin-1-yl)quinoxalin-2-amine, 2,2,2-trifluoroacetic acid salt [Cpd 495]” the figure was 18 nM. For “2-(4-(2,4-difluorophenoxy)piperidin-1-yl)-N-isopropylpyrido[3,4-b]pyrazin-3-amine [Cpd 656]”, the concentration for half-maximal inhibition (IC50) came out at 14 nM. With “4-chloro-3-(1-(7-chloro-2-(cyclopropylamino)pyrido[3,4-b]pyrazin-3-yl)piperidine-4-carbonyl)benzonitrile [Cpd 595]” the figure was 478 nM. With `N#Cc1ccc2nc(NC3CC3)c(N3CCC(C(F)c4cc(F)ccc4F)CC3)nc2c1` (stereo not drawn) [Cpd 471] the figure was 75 nM.
